# From patent EP0726261A1, “Herbidical 1,2,4 thiadiazoles” (American Cyanamid Company, priority 1995, dated 1996)
# Key:
# Type in all cases: in vivo
# [1] = test system: Glycine max; test: Herbicidal activity, postemergence test (Example 66); conditions: post; 1000 g/ha; assessed visually twenty days after spraying
# How it was run: (§1)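 Visual 0-9 score (0 = growth as untreated control, 9 = death; one unit ≈ 11% more effect) taken twenty days post-spray. Compound was applied at 1000 g a.i./ha in 900 L/ha water, diluted from acetone containing 0.4% Triton X-155, to sown soil (pre) or seedlings (post).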
# [2] = test system: Sinapsis alba; test: as above; design: key: A rating of 0 indicates growth as untreated control; a rating of 9 indicates death; conditions: post; 1000 g/ha; assessed visually twenty days after spraying
# How it was run: as §1
# [3] = test system: Beta vulgaris; test: as above; design: key: A rating of 0 indicates growth as untreated control; a rating of 9 indicates death; conditions: post; 1000 g/ha; assessed visually twenty days after spraying
# How it was run: as §1
# [4] = test system: Oryza sativa; test: as above; design: key: A rating of 0 indicates growth as untreated control; a rating of 9 indicates death; conditions: post; 1000 g/ha; assessed visually twenty days after spraying
# How it was run: as §1
# [5] = test system: Linum usitatissimum; test: as above; design: key: A rating of 0 indicates growth as untreated control; a rating of 9 indicates death; conditions: post; 1000 g/ha; assessed visually twenty days after spraying
# How it was run: as §1
# [6] = test system: Avena fatua; test: as above; design: key: A rating of 0 indicates growth as untreated control; a rating of 9 indicates death; conditions: post; 1000 g/ha; assessed visually twenty days after spraying
# How it was run: as §1
# [7] = test system: Zea mays; test: as above; design: key: A rating of 0 indicates growth as untreated control; a rating of 9 indicates death; conditions: post; 1000 g/ha; assessed visually twenty days after spraying
# How it was run: as §1
# [8] = test system: Echinochloa crus-galli; test: as above; design: key: A rating of 0 indicates growth as untreated control; a rating of 9 indicates death; conditions: post; 1000 g/ha; assessed visually twenty days after spraying
# How it was run: as §1
# [9] = test system: Glycine max; test: Herbicidal activity, preemergence test (Example 66); design: key: A rating of 0 indicates growth as untreated control; a rating of 9 indicates death; conditions: pre; 1000 g/ha; assessed visually twenty days after spraying
# How it was run: as §1
# [10] = test system: Sinapsis alba; test: as above; design: key: A rating of 0 indicates growth as untreated control; a rating of 9 indicates death; conditions: pre; 1000 g/ha; assessed visually twenty days after spraying
# How it was run: as §1
# [11] = test system: Beta vulgaris; test: as above; design: key: A rating of 0 indicates growth as untreated control; a rating of 9 indicates death; conditions: pre; 1000 g/ha; assessed visually twenty days after spraying
# How it was run: as §1
# [12] = test system: Oryza sativa; test: as above; design: key: A rating of 0 indicates growth as untreated control; a rating of 9 indicates death; conditions: pre; 1000 g/ha; assessed visually twenty days after spraying
# How it was run: as §1
# [13] = test system: Linum usitatissimum; test: as above; design: key: A rating of 0 indicates growth as untreated control; a rating of 9 indicates death; conditions: pre; 1000 g/ha; assessed visually twenty days after spraying
# How it was run: as §1
# [14] = test system: Avena fatua; test: as above; design: key: A rating of 0 indicates growth as untreated control; a rating of 9 indicates death; conditions: pre; 1000 g/ha; assessed visually twenty days after spraying
# How it was run: as §1
# [15] = test system: Zea mays; test: as above; design: key: A rating of 0 indicates growth as untreated control; a rating of 9 indicates death; conditions: pre; 1000 g/ha; assessed visually twenty days after spraying
# How it was run: as §1
# [16] = test system: Echinochloa crus-galli; test: as above; design: key: A rating of 0 indicates growth as untreated control; a rating of 9 indicates death; conditions: pre; 1000 g/ha; assessed visually twenty days after spraying
# How it was run: as §1
SMILES,"herbicidal effects on a 0-9 scale, GLXMA [1]","herbicidal effects on a 0-9 scale, SINAL [2]","herbicidal effects on a 0-9 scale, BEAVA [3]","herbicidal effects on a 0-9 scale, ORYSA [4]","herbicidal effects on a 0-9 scale, LIUUT [5]","herbicidal effects on a 0-9 scale, AVEFA [6]","herbicidal effects on a 0-9 scale, ZEAMX [7]","herbicidal effects on a 0-9 scale, ECHCG [8]","herbicidal effects on a 0-9 scale, GLXMA [9]","herbicidal effects on a 0-9 scale, SINAL [10]","herbicidal effects on a 0-9 scale, BEAVA [11]","herbicidal effects on a 0-9 scale, ORYSA [12]","herbicidal effects on a 0-9 scale, LIUUT [13]","herbicidal effects on a 0-9 scale, AVEFA [14]","herbicidal effects on a 0-9 scale, ZEAMX [15]","herbicidal effects on a 0-9 scale, ECHCG [16]"
CCNC(=O)c1nc(-c2ccc(F)cc2)ns1 [Example 17],5,8,7,0,2,4,2,2,0,0,0,0,0,0,0,0
C=CCNC(=O)c1nc(-c2ccc(F)cc2)ns1 [Example 18],6,9,8,0,5,2,0,0,0,0,0,0,0,0,0,0
CC(C)CNC(=O)c1nc(-c2ccc(F)cc2)ns1 [Example 19],6,8,8,0,2,0,0,0,0,0,0,0,0,0,0,0
O=C(NCc1ccccc1)c1nc(-c2ccc(F)cc2)ns1 [Example 20],6,9,9,0,6,0,0,2,0,0,0,0,0,0,0,0
C[C@H](NC(=O)c1nsc(-c2ccc(Cl)cc2)n1)c1ccccc1 [Example 24],5,8,8,0,5,0,0,2,0,0,0,0,0,0,0,0
